Measurements: PMC12049414 (Nature Communications, 2025)

Molecular target: T1, human vesicular polyamine transporter (hVPAT) (Homo sapiens, UniProt Q6NT16)
T1 sequence (Q6NT16 1-456): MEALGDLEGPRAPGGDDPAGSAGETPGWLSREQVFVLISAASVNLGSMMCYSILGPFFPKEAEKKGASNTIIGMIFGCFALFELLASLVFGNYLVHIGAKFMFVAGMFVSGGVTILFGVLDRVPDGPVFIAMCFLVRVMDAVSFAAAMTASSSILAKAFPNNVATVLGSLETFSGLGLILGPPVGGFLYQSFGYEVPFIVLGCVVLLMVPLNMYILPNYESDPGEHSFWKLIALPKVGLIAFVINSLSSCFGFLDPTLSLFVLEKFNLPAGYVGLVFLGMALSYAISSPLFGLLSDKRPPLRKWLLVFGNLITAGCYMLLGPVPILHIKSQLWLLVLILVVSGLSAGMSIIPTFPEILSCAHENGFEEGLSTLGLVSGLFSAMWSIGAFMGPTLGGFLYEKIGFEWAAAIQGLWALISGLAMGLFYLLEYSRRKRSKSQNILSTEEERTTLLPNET
Test: cryo-EM structure at […] Å
Format: biochemical

Ki: 2 µM
Structure (SMILES): COc1cc2c(cc1OC)C1CC(=O)C(CC(C)C)CN1CC2 (stereo not shown) [TBZ, tetrabenazine]
